The values that follow come from patent US12312347B2, “Azaindole derivative and use thereof as FGFR and C-Met inhibitor” (Wuxi Life Fountain Biotech Co., Ltd, priority 2018, dated 2025).

Where a name gives a salt, the structure may show the parent alone.

Data set [1] deals with SNU-16 transplantation tumor model. Put plainly: In vivo pharmacodynamic evaluation, SNU-16 gastric cancer transplantation tumor model. On the set-up: species or system nude mice. The conditions noted are these: SNU-16 transplantation model. As for the experimental part:
Method of establishing SNU-16 gastric cancer model: SNU-16 cells in logarithmic growth phase were collected, and the cells were resuspended in 50% PBS (pH 7.4, 0.01 M) and 50% Matrigel after cell counting. The cell concentration was adjusted to 4×10^7 cells/mL; the cells were placed in an ice box, and the cell suspension was aspirated with a 1-mL syringe and subcutaneously injected into nude mice via the anterior right armpit. Each animal was inoculated with 200 μL (8×10^6 cells/each) to establish the SNU-16 transplantation tumor model. The animals were observed regularly, and the tumor diameters were measured using an electronic vernier caliper. The data were inputted an Excel spreadsheet to calculate the tumor volume and monitor the tumor growth. When the tumor volume reached 100-300 mm^3, mice bearing similar tumor volume and in good health condition were selected. Randomization method was used for animal grouping; the number of animals in each group was n=7, and the average tumor volume of each group was about 145 mm^3. After the experiment started, tumor diameters were measured and tumor volume was calculated twice a week, and the weight of animals was weighed and recorded.
Tumor growth inhibition (TGI) was used to analyze the tumor growth trend and evaluated by tumor volume over time. The long axis (L) and short axis (W) of the subcutaneous tumors were measured twice a week by a caliper, and the tumor volume (TV) was calculated by the formula ((L×W^2)/2).
The experimental data were calculated and statistically processed by SPSS 19.0. Unless otherwise stated, data were expressed as mean f standard error (Mean±SE), and comparisons between two groups were analyzed by t-test. p<0.05 indicates a significant difference. The solvent 30% PEG400 (containing 70% deionized water, v/v) was used as negative control.

The nature of data set [2]: Pharmacokinetic evaluation in mice (IV and PO). The conditions noted are these: for AUC(0-t) / bioavailability / Cmax / Tmax / clearance / half-life / Vd: male, plasma; for bioavailability: PO 10 mg/kg vs IV 2 mg/kg, read-out: F (bioavailability); for Cmax: read-out: Cmax (peak concentration); for Tmax: read-out: Tmax (time to peak); for clearance: read-out: Cl (plasma clearance); for half-life: read-out: T1/2 (elimination half-life) (converted); for Vd: read-out: Vdss (steady-state apparent volume of distribution); for oral bioavailability (in words): oral administration. The format is in vivo, male CD-1 mice. As for the experimental part:
Experimental Procedure: 0.4 mg/mL clear solution of the test compounds in a specific menstruum was injected intravenously into male CD-1 nude mice (overnight fasting, aged 7-9 weeks) via caudal vein at a dose of 2 mg/kg. About 30 μL of blood was collected from jugular or caudal vein at 0.0833, 0.25, 0.5, 1.0, 2.0, 4.0, 8.0 and 24 h after intravenous administration. […] About 30 μL of blood was collected from jugular or caudal vein of the male CD-1 mice at 0.0833, 0.25, 0.5, 1.0, 2.0, 4.0, 8.0 and 24 h after oral administration. The blood samples were added into anticoagulant tubes containing EDTA-K2, and then centrifuged to separate the plasma. LC-MS/MS method was used to determine the drug concentration in blood, and WinNonlin™ Version 6.3 (Pharsight, Mountain View, CA) pharmacokinetic software was used to calculate the relevant pharmacokinetic parameters by non-compartment model linear logarithmic trapezoidal method.
Note: Plasma clearance (Cl) mL/min/kg, steady-state apparent volume of distribution (Vdss) L/kg, elimination half-life (T1/2) and area under the plasma concentration curve from point 0 to the last measurable time point (AUC0-last), bioavailability F %, peak concentration (Cmax), time to peak Tmax

The next data set concerns the target T1, human FGFR4 (Homo sapiens, UniProt P22455).
T1 construct: purchased Invitrogen P3054
The data set can be described thus: 33P isotope-labeled kinase activity test, FGFR4. The conditions noted are these: ATP 100 μM. The format is biochemical. How it is done:
(§1) The inhibitory activities of the tested compounds on human FGFR1, FGFR4, and c-Met were evaluated by the IC50 values measured using ^33P isotope-labeled kinase activity test (Reaction Biology Corp).
(§2) Buffer condition: 20 mM Hepes (pH 7.5), 10 mM MgCl2, 1 mM EGTA, 0.02% Brij35, 0.02 mg/mL BSA, 0.1 mM Na3VO4, 2 mM DTT, 1% DMSO.
(§3) Test procedure: The test compounds were dissolved in DMSO at room temperature and formulated to be 10 mM solutions for later use. The substrates were dissolved in freshly prepared buffer, and kinases to be tested were added and mixed well. The test compounds dissolved in DMSO were added to the above mixed reaction solutions by acoustic technique (Echo 550). The concentration of the compound in reaction solution was 1 μM, 0.25 μM, 0.156 μM, 3.91 nM, 0.977 nM, 0.244 nM, 0.061 nM, 0.0153 nM, 0.00381 nM or 10 μM, 2.50 μM, 0.62 μM, 0.156 μM, 39.1 nM, 9.8 nM, 2.4 nM, 0.61 nM, 0.15 nM, 0.038 nM. After incubation for 15 min, ^33P-ATP (activity 0.01 μCi/μL, corresponding concentrations are listed in Table 1) was added to start the reaction. Supplier item number, batch number, as well as the concentration information in the reaction solution of FGFR1, FGFR4, c-Met and substrates thereof are listed in Table 1. […] The kinase activity data are expressed by comparison between the kinase activity in the test compound group and the kinase activity in the blank group (containing DMSO only). IC50 values were obtained by curve fitting with Prism4 software (GraphPad).

Another data set addresses T2, human FGFR1 (Homo sapiens, UniProt P11362).
T2 construct: purchased Invitrogen PV3146
Put plainly: 33P isotope-labeled kinase activity test, FGFR1. Type of data set: biochemical. The conditions noted are these: ATP 5 μM. As for the experimental part: as §1, §2
as §3, with “The concentration of the compound in reaction solution was 1 μM, 0.25 μM, 0.156 μM, 3.91 nM, 0.977 nM, 0.244 nM, 0.061 nM, 0.0153 nM, 0.00381 nM or 10 μM, 2.50 μM, 0.62 μM, 0.156 μM, 39.1 nM, 9.8 nM, 2.4 nM, 0.61 nM, 0.15 nM, 0.038 nM.” left out

The target in a further data set is T3, human c-Met (Homo sapiens, UniProt P08581).
T3 construct: purchased Invitrogen PV3143
The data set can be described thus: 33P isotope-labeled kinase activity test, c-Met. The format is biochemical. The conditions noted are these: ATP 10 μM. How it is done:
as §1, §2, §3

T2 sequence (P11362 22-822): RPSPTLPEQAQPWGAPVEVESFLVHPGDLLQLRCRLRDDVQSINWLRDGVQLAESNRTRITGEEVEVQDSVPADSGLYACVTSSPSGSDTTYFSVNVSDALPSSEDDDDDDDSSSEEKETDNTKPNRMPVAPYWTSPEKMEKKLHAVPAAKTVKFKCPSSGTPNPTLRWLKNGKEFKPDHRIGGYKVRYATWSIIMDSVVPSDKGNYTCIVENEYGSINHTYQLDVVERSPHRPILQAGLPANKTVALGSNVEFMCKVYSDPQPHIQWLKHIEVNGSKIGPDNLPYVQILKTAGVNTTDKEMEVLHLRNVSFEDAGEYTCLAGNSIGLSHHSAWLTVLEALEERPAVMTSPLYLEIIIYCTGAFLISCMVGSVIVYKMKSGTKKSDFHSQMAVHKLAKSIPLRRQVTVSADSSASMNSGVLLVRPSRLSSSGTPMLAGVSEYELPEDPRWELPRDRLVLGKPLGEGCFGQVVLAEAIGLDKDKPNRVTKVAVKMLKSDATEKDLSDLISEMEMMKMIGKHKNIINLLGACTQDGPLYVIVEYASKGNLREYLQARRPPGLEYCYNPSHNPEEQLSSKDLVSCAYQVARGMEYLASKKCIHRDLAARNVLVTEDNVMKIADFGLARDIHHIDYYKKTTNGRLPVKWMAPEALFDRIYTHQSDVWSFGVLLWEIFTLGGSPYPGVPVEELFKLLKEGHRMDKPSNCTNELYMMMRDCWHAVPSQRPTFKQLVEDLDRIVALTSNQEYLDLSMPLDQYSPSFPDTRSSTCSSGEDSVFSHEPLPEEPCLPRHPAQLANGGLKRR
T1 sequence (P22455 22-802): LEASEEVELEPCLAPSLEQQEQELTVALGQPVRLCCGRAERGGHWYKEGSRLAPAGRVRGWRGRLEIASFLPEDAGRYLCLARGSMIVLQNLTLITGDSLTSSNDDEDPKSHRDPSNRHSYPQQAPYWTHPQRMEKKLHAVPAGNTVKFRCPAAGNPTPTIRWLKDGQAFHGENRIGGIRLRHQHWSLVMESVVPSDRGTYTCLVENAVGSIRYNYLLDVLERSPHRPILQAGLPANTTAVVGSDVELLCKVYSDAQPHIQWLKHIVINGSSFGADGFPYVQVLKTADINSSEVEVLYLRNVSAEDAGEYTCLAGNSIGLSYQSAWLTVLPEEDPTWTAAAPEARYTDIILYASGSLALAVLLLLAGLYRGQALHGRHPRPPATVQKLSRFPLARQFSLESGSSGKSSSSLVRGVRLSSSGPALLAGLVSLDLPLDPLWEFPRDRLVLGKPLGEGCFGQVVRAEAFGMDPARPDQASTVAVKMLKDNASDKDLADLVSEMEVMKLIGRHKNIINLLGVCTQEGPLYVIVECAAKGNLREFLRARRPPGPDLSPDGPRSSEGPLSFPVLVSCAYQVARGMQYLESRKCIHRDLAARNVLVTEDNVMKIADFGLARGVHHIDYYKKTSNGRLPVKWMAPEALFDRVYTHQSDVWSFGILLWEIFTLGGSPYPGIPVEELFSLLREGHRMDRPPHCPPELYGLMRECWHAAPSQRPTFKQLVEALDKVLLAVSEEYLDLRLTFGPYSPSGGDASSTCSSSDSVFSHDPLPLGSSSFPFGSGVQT
T3 sequence (P08581 25-1390): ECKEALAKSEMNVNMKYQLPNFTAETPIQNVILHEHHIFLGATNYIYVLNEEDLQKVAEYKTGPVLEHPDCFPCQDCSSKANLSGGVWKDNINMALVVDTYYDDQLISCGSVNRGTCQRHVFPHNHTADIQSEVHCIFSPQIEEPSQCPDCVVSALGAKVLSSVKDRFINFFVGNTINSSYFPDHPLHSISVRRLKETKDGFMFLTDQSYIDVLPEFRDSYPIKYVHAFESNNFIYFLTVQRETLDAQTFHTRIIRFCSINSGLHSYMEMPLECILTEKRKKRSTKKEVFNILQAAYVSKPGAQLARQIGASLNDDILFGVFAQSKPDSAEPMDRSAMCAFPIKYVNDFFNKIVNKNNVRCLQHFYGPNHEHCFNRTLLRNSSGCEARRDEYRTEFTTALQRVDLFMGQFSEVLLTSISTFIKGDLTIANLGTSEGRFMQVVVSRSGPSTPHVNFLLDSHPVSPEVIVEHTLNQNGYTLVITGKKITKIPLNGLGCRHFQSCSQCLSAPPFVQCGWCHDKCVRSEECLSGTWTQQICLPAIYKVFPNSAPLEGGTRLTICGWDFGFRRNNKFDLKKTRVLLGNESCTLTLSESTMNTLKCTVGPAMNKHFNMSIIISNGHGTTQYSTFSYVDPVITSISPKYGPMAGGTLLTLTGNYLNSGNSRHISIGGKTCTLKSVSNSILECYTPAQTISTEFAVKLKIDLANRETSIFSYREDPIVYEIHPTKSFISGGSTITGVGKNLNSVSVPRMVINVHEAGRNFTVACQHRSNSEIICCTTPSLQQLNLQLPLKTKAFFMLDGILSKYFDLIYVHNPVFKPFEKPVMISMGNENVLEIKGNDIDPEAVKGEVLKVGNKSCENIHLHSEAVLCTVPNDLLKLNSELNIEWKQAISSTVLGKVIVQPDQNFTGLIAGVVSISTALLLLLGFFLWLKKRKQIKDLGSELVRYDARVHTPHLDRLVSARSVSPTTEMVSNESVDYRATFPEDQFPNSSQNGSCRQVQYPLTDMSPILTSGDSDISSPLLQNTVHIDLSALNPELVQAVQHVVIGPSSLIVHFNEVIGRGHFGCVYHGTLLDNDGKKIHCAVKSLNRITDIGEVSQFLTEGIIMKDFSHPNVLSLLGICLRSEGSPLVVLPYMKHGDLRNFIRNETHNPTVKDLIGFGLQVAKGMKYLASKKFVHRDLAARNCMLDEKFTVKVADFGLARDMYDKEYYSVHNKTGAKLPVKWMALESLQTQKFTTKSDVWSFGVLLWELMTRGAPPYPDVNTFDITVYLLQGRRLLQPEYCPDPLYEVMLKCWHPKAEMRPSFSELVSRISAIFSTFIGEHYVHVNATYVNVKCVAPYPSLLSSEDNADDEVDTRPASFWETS

As a reminder, the AUC(0-t) is the area under the concentration-time curve up to a stated or last time point. Low readings indicate low exposure, high ones high exposure. In general, bioavailability refers to the share of a dose that reaches the circulation, judged against a reference dose that is usually intravenous. One may read the Tmax as the time from dosing to the highest level. As to `COc1cc(OC)c(F)c(Cc2c[nH]c3ncc(-c4cnn(CCO)c4)cc23)c1F` [Embodiment 46], the “TGI % (the last administration on the 21th day)” value (“TGI %” for short) in data set [1] (5 mg/KG BID) worked out at 98%. The “TGI %” value in data set [1] (10 mg/KG QD) stood at 80%. In addition, in data set [2] (CD-1, mouse, PO 10 mg/kg), the AUC(0-t) was determined as 16.6 µM·h, the Cmax was found to be 5040 nM and the Tmax came to 1 h. Also, in data set [2] (CD-1, mouse), the bioavailability was 86.6%. Moreover, in data set [2] (CD-1 nude, mouse, IV 2 mg/kg), the AUC(0-t) was found to be 3.79 µM·h, the clearance came out at 21.2 mL/min/kg, the half-life was 1.1 h and the Vd came out at 1.7 L/kg. Also, the “oral bioavailability (in words)” value in data set [2] is given as “high oral bioavailability”.
Usually IC50 stands for the concentration needed to halve the response being measured. Read a low IC50 as greater potency in that assay. `COc1nc(OC)c(F)c(Cc2c[nH]c3ncc(-c4cnn(CCO)c4)cc23)c1F` [Embodiment 48]: the IC50 against human FGFR4 was found to be 1.7 nM. Besides, the “TGI %” value in data set [1] (10 mg/KG QD) stood at 77%. The 50% inhibitory concentration (IC50) at human FGFR1 stood at 0.3 nM. At human c-Met, this compound registered a concentration for half-maximal inhibition (IC50) of 6.3 nM. Further, in data set [2] (CD-1, mouse, PO 10 mg/kg), the AUC(0-t) was 3.23 µM·h, the Cmax worked out at 877 nM and the time to peak (Tmax) worked out at 1.3 h. Moreover, in data set [2] (CD-1, mouse), the bioavailability amounted to 21.5%. In data set [2] (CD-1 nude, mouse, IV 2 mg/kg), the AUC(0-t) came to 3.15 µM·h, the clearance was determined as 25.3 mL/min/kg, the half-life was 1.1 h and the Vd worked out at 2.1 L/kg. The “oral bioavailability (in words)” value in data set [2] is listed as “moderate bioavailability”.
For `CCN1CCC(C#N)(c2ccc(-c3cnc4[nH]cc(Cc5c(F)c(OC)cc(OC)c5F)c4c3)cc2)CC1` [Trifluoroacetate salt of embodiment 58], the values for the IC50 at human FGFR4, at human FGFR1 and against human c-Met were 23.5 nM, 1.2 nM and 162 nM, respectively.
For `COc1cc(OC)c(F)c(Cc2c[nH]c3ncc(-c4cccc(C5(C#N)CCNCC5)c4)cc23)c1F` [Trifluoroacetate salt of embodiment 59] the same measures were 14.7 nM, 0.8 nM and 127 nM.
Regarding `CCN1CCC(C#N)(c2cccc(-c3cnc4[nH]cc(Cc5c(F)c(OC)cc(OC)c5F)c4c3)c2)CC1` [Trifluoroacetate salt of embodiment 60], the IC50 worked out at 33.4 nM against human FGFR4, 2.2 nM against human FGFR1 and 320 nM against human c-Met.
Consider `COc1cc(OC)c(F)c(Cc2c[nH]c3ncc(-c4cncc(C5(C#N)CCNCC5)c4)cc23)c1F` [Trifluoroacetate salt of embodiment 61], for which the IC50 against human FGFR4 was found to be 4.5 nM; at human FGFR1, 0.7 nM; against human c-Met it was 243 nM.
The matching figures for `COc1cc(OC)c(F)c(Cc2c[nH]c3ncc(-c4cnn(CC(C)(C)O)c4)cc23)c1F` [Trifluoroacetate salt of embodiment 66]: 9 nM, 0.5 nM and 28 nM.
